Series [1] can be described thus: Acute toxicity when administered intraperitoneally in mice. It counts as organism-based. Conditions: mouse, in vivo, ip; read-out: ALD50.
Series [2] has as its system Mus musculus. Put plainly: Effective dose for anorexigenic activity when administered to mice intraperitoneally; no effect. It counts as functional, organism-based.
Series [3] is described as follows: Effect on change in blood pressure in mice. It counts as functional.
Series [4] in a line: Effect on change in blood pressure in […]; no effect. It counts as functional, organism-based.
Series [5] relates to Mus musculus. Put plainly: Protection against amphetamine toxicity in mice when administered percutaneously. It counts as functional.
Series [6] relates to Mus musculus. Put plainly: Effective dose for anorexigenic activity when administered to mice intraperitoneally. The following applies: ip. It counts as functional.
For series [7], the system named is Mus musculus. Put plainly: Protection against amphetamine toxicity in mice when administered percutaneously; no effect. It counts as functional, organism-based.

The structures appear in SMILES notation. Active and inactive are the calls of the source. The calls are words filed in the database; no cut-off is given here.

The values below come from ChEMBL document CHEMBL1146759, “Chemo- and stereoselective synthesis of benzocycloheptene and 1-benzoxepin derivatives as alpha-sympathomimetic and anorexigenic agents” (Bioorg Med Chem Lett, 2004).

For the compound `COc1ccc2c(c1)[C@H](O)[C@@H](N)CCO2`, the LD50 in series [1] was 150 mg/kg. In addition, the ED50 – broadly, the dose at which the effect has come halfway, by size or by number of responders – in series [2] is “inactive”. Moreover, in series [3], the “Change in blood pressure” value worked out at 40 mmHg.

For the compound `N[C@@H]1CCCc2ccccc2[C@@H]1O`, the “Change in blood pressure” value in series [4] was “inactive”. In addition, the LD50 in series [1] amounted to 150 mg/kg. In series [5], this compound registered an ED50 of 73 mg/kg.

Take `COc1ccc2c(c1)[C@H](O)[C@H](N)CCO2`: the LD50 in series [1] is 150 mg/kg. In series [2], the ED50 entry is “inactive”. For the same compound, the “Change in blood pressure” value in series [3] worked out at 20 mmHg.

Take `Cc1ccc2c(c1)[C@H](O)[C@@H](N)CCO2`: the LD50 in series [1] was 150 mg/kg. The ED50 entry in series [2] was “inactive”. Further, in series [3], the “Change in blood pressure” value is given as 38 mmHg.

As to `N[C@H]1CCOc2ccccc2[C@@H]1O`, the LD50 in series [1] worked out at 500 mg/kg. Besides, the ED50 in series [6] was 55 mg/kg. The “Change in blood pressure” value in series [3] was found to be 32 mmHg.

Consider `COc1cc2c(cc1OC)[C@H](O)[C@H](N)CCC2`, for which the “Change in blood pressure” value in series [4] was “inactive”. In addition, the LD50 in series [1] was 150 mg/kg. For the same compound, the ED50 entry in series [7] was “inactive”.

In the case of `Cc1ccc2c(c1)[C@H](O)[C@H](N)CCO2`, the LD50 in series [1] worked out at 300 mg/kg. Besides, the ED50 result in series [2] is “inactive”. For the same compound, the “Change in blood pressure” value in series [3] was 10 mmHg.

Regarding `N[C@H]1CCCc2ccccc2[C@@H]1O`, in series [4], the “Change in blood pressure” value was “inactive”. In addition, in series [1], the LD50 is 150 mg/kg. In addition, the ED50 entry in series [7] is “inactive”.

For the compound `Cc1cc2c(cc1C)[C@H](O)[C@H](N)CCC2`, the “Change in blood pressure” value in series [4] is “inactive”. For the same compound, the LD50 in series [1] is 150 mg/kg. The ED50 result in series [7] was “inactive”.

Take `N[C@@H]1CCOc2ccccc2[C@@H]1O`: the LD50 in series [1] worked out at 800 mg/kg. Moreover, in series [6], the ED50 came out at 75 mg/kg. Further, in series [3], the “Change in blood pressure” value turned out to be 44 mmHg.

For `N[C@@H]1CCCc2cc(O)c(O)cc2[C@@H]1O`, in series [1], the LD50 came out at 150 mg/kg. Also, the ED50 entry in series [7] was “inactive”.
